Active and inactive are the calls of the source. Cut-off read from the data, not from the text of the source: actives have a measured Kd and inactives only a lower limit.

The term Kd denotes a measure of binding affinity in units of concentration.

In one assay the target is T1, Ephrin type-B receptor 6 (Homo sapiens, UniProt O15197).
T1 sequence (O15197 whole entry): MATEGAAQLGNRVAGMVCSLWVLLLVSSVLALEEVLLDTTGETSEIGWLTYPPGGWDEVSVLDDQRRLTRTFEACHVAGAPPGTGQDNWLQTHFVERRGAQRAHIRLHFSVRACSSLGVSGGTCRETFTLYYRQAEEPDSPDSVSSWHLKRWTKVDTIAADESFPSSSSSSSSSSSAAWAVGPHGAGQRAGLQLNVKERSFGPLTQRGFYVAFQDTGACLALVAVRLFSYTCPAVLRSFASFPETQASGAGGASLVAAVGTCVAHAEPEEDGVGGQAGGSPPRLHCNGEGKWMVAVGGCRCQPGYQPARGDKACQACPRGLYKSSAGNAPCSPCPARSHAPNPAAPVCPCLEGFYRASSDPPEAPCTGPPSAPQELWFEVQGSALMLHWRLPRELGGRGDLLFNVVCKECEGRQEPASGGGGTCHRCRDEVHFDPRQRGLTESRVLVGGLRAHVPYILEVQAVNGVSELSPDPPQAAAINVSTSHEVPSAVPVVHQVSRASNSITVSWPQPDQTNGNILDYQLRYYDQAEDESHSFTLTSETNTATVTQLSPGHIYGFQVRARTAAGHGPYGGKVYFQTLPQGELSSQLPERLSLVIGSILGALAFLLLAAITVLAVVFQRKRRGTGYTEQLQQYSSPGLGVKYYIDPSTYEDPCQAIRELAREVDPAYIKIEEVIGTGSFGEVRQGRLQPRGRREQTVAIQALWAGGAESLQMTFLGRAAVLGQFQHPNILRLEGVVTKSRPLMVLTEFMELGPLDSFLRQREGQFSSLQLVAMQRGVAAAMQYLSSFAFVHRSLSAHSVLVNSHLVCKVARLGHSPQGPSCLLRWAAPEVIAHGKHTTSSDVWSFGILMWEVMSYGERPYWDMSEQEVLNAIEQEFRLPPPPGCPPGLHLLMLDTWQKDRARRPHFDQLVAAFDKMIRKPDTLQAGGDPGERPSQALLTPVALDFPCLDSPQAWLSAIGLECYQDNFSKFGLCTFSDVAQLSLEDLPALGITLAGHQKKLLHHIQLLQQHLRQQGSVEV

The target of assay [1] is T2, Receptor-type tyrosine-protein kinase FLT3 (Homo sapiens, UniProt P36888).
T2 sequence (P36888 whole entry): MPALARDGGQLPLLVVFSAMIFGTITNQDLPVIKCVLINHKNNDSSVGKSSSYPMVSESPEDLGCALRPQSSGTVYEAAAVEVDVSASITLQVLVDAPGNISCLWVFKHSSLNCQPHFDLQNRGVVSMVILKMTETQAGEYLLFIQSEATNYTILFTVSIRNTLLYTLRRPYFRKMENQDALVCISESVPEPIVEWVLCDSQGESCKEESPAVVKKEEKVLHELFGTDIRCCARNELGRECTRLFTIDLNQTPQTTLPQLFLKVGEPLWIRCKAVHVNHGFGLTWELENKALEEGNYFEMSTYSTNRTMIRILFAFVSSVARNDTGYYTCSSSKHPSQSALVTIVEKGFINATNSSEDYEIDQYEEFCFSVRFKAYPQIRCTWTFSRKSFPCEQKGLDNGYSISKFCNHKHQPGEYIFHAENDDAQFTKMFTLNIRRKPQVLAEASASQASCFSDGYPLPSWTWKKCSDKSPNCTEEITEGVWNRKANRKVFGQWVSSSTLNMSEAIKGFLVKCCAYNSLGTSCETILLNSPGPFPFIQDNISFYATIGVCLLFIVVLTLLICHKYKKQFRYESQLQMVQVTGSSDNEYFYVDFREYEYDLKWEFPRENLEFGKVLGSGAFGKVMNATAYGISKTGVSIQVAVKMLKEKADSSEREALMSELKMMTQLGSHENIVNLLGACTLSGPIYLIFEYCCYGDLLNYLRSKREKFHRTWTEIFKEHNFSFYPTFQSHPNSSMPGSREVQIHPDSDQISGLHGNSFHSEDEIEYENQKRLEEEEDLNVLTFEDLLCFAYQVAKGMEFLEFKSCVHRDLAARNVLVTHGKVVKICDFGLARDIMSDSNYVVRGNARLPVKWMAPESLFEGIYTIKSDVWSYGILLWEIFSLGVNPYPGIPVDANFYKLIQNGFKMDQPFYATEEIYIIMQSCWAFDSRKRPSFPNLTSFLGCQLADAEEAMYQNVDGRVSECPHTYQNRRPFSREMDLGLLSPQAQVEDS

Assay [2] concerns the target Mitogen-activated protein kinase kinase kinase kinase 5 (Homo sapiens, UniProt Q9Y4K4).
For assay [3], the target named is T3, Discoidin domain-containing receptor 2 (Homo sapiens, UniProt Q16832).
T3 sequence (Q16832 whole entry): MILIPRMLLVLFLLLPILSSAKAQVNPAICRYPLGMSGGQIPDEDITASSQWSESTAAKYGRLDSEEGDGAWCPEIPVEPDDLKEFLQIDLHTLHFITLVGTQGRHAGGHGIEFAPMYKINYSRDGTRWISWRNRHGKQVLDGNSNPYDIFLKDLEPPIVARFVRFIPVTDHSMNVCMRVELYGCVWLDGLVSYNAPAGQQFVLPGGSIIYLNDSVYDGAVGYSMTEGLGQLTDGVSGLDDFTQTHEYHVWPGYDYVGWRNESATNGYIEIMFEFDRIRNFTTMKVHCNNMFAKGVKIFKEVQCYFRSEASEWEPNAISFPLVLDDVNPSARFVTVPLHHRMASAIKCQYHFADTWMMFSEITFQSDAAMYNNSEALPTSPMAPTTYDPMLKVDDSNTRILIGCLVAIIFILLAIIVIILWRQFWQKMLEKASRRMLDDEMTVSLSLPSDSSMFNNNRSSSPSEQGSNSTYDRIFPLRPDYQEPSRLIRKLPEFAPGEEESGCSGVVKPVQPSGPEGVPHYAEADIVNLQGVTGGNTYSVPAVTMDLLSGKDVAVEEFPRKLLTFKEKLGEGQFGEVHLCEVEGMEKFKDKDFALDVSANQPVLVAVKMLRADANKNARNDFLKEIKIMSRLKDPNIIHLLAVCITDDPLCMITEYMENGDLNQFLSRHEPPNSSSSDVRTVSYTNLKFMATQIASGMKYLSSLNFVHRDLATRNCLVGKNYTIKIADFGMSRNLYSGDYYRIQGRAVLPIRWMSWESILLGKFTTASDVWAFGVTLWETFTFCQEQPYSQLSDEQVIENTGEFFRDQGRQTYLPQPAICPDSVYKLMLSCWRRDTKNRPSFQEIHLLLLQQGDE
Note: in the data inactive means no Kd found up to 30 µM.

Sequence of Mitogen-activated protein kinase kinase kinase kinase 5 (Q9Y4K4 whole entry, the tested form may be a part): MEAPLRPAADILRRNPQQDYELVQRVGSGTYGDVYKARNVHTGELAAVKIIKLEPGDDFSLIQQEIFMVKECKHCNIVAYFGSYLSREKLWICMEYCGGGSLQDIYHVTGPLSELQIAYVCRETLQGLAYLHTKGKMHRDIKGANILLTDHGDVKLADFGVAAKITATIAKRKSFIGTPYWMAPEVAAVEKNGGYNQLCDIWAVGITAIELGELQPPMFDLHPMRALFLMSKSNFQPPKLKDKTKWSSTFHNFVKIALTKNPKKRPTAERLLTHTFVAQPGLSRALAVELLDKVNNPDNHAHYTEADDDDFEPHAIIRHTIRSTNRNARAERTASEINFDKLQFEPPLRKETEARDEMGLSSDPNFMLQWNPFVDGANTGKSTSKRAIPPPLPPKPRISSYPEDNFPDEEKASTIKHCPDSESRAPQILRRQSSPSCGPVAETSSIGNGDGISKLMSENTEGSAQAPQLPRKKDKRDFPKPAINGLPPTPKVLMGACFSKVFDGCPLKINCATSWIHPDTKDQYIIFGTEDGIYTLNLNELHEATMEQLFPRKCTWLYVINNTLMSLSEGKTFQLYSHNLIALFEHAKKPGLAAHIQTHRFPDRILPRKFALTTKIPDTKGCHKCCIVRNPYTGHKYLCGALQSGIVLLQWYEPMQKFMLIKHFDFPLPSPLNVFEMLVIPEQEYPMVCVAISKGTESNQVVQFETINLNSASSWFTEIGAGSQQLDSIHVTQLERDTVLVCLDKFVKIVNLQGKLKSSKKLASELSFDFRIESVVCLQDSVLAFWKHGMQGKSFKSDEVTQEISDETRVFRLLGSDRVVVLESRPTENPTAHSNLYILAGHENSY

In the case of `O=C1NC(=O)[C@@H](c2cn3c4c(cccc24)CCC3)[C@@H]1c1c[nH]c2ccccc12` [TIVANTINIB], the Kd (on Ephrin type-B receptor 6; in assay [1]; in assay [2]; in assay [3]) was > 30 µM (inactive) in each case.

With `C[C@@H](NC(=O)c1ncnc(N)c1Cl)c1ncc(C(=O)Nc2cc(C(F)(F)F)c(Cl)cn2)s1` [TOVORAFENIB], the Kd on Ephrin type-B receptor 6 was 3.34 µM (active); in assay [1] it was > 30 µM (inactive); in assay [2], > 30 µM (inactive); in assay [3], 0.227 µM (active).

`Cc1cc(Nc2ncnc3ccc(NC4=NC(C)(C)CO4)cc23)ccc1Oc1ccn2ncnc2c1` [TUCATINIB]: the Kd (on Ephrin type-B receptor 6; in assay [1]; in assay [2]; in assay [3]) was > 30 µM (inactive) throughout.

Take `Cn1ncc(Cl)c1-c1cc(C(=O)N[C@H](CN)Cc2ccc(F)c(F)c2)oc1Cl` [UPROSERTIB]: the Kd (at Ephrin type-B receptor 6; in assay [1]; in assay [2]; in assay [3]) was > 30 µM (inactive) in each case.

Turning to `CC(C)c1cc(CNc2nc(Nc3cc(C4CC4)[nH]n3)cc(N3CCN(C)CC3)n2)on1` [XL-228], the Kd on Ephrin type-B receptor 6 was 0.026 µM (active); in assay [1] it was 0.005 µM (active); in assay [2] it was 0.551 µM (active); in assay [3] it was 4.96 µM (active).

As for `C[C@@H](N)c1ccc(C(=O)Nc2ccnc3[nH]ccc23)cc1` [Y-39983], the Kd (on Ephrin type-B receptor 6; in assay [1]; in assay [2]; in assay [3]) was > 30 µM (inactive) each time.

As to `CN1C/C=C/CCOc2cccc(c2)-c2ccnc(n2)Nc2cccc(c2)C1` [ZOTIRACICLIB], the Kd was > 30 µM (inactive) on Ephrin type-B receptor 6, 0.418 µM in assay [1], 5.09 µM (active) in assay [2] and > 30 µM (inactive) in assay [3].

The record behind these values is ChEMBL document CHEMBL3991601, “The target landscape of clinical kinase drugs” (Science, 2017).
